Measured values as given in patent US10111874B2, “Combination therapies for treatment of cancer” (Araxes Pharma LLC, priority 2014, dated 2018).

Assays:
[1] = target: T1, KRAS G12C 1-169, his-tagged protein, GDP-loaded (Homo sapiens, UniProt P01116, G12C); assay: Biochemical assay: covalent binding to KRAS G12C analyzed by mass spectrometry
T1 construct: KRAS G12C 1-169, his-tagged protein, GDP-loaded

[2] = system: H358 cells (KRAS G12C); assay: Western blots of downstream KRAS signaling nodes and apoptosis markers in H358 cells; type: cell-based; conditions: for apoptosis based on cleaved PARP levels / inhibition of downstream KRAS signaling nodes (Western blot): H358 cells; for apoptosis based on cleaved PARP levels: erlotinib 5 μM; for inhibition of downstream KRAS signaling nodes (Western blot): alone; for G1 arrest and induction of apoptosis: H358 cells (FIG. 9, left panel)
Description: FIG. 2 depicts western blot analysis of downstream targets of K-Ras signaling. […] Paclitaxel was used as a positive control. The western blots were probed with antibodies for p-AKT, p-ERK, total ERK, p-RSK, p-S6 and cleaved PARP. Cleaved PARP is indicative of apoptosis. B) A549 cells that express the G12S isoform of K-Ras were used a control for K-Ras G12C inhibitor specificity. A549 cells were treated as in A).
Western blots were used to analyze downstream KRAS signaling nodes (AKT, ERK, RSK, S6) and a marker of apoptosis (cleaved PARP).
Western blots were used to analyze downstream KRAS signaling nodes (AKT, ERK, RSK, S6) and a marker of apoptosis (cleaved PARP). […] Taxol (paclitaxel) was used as a positive control.
Western blots were used to analyze downstream KRAS signaling nodes (AKT, ERK, RSK, S6) and a marker of apoptosis (cleaved PARP). […] Caspase activity was measured using a standard caspase activity luminescence assay (Capase-Glo, Promega).

[3] = compounds 48-246, measured at 2 h
[4] = 24 hours, G12C inhibitors 10 μM, GDC0941 2 μM (FIG. 2)
[5] = I-74 15 μM, PD0325901 100 nM, GDC0941 1 μM
[6] = compounds 247-342, measured at 30 min

T1 sequence (P01116 1-169 isoform P01116-2 G12C): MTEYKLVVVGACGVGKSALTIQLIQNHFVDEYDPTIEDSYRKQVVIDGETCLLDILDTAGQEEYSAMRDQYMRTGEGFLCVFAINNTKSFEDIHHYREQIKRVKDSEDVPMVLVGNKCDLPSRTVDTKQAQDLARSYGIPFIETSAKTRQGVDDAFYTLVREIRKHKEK

`C=CC(=O)N1CCN(c2ncnc3cc(-c4c(O)ccc5ccccc45)c(Cl)cc23)CC1` [Compound I-153, 1-(4-(6-chloro-7-(2-hydroxynaphthalen-1-yl)quinazolin-4-yl)piperazin-1-yl)prop-2-en-1-one] was tested, and the Binding % [1, 3] was “++++ (++++indicates binding activity greater than 75%)”, the “apoptosis based on cleaved PARP levels” value [2, 4] was “minimal cleaved PARP” and the “inhibition of downstream KRAS signaling nodes (Western blot)” value (“inhibition” below) ([2]; 24 hours, 10 μM (FIG. 2)) was “clear and nearly complete inhibition of p-ERK, p-RSK, and p-S6, with partial inhibition of p-AKT”.

For `C=CC(=O)N1CC(N2CCN(C(=O)CNc3cc(CC)c(Cl)cn3)CC2)C1` [II-74, 1-(3-(4-(2-(5-chloro-4-ethylpyridin-2-ylamino)acetyl)-piperazin-1-yl)azetidin-1-yl)prop-2-en-1-one], the Binding % ([1]; determined at 2 hrs) was “+ (+indicates binding activity from 5% to 20%)” and the “G1 arrest and induction of apoptosis” value [2] was “G1 arrest with low to modest induction of apoptosis”.

For `C=CC(=O)N1CCN(c2ncnc3cc(-c4ccccc4O)c(Cl)cc23)CC1` [Compound I-74, 1-(4-(6-chloro-7-(2-hydroxyphenyl)quinazolin-4-yl)piperazin-1-yl)prop-2-en-1-one], the Binding % [1, 3] was “+++ (+++indicates binding activity greater than 50% and up to 75%)”, the “inhibition” value ([2]; 15 μM, 24 hours) was “clear and nearly complete inhibition of p-ERK, p-RSK, and p-S6” and the “apoptosis based on cleaved PARP levels” value [2, 5] was “minimal cleaved PARP”.

In the case of `O=C(NOC[C@H](O)CO)c1ccc(F)c(F)c1Nc1ccc(I)cc1F` [PD0325901], the “G1 arrest and induction of apoptosis” value [2] is reported as “G1 arrest with low to modest induction of apoptosis” and the “apoptosis based on cleaved PARP levels” value [2, 5] is reported as “does not induce robust apoptosis”.

With `C=CC(=O)N1CCN(c2ncnc3c(F)c(-c4ccccc4F)c(Cl)cc23)CC1` [Compound I-158, 1-(4-(6-chloro-8-fluoro-7-(2-fluorophenyl)quinazolin-4-yl)piperazin-1-yl)prop-2-en-1-one] the Binding % [1, 3] was “++++ (++++indicates binding activity greater than 75%)”, the “apoptosis based on cleaved PARP levels” value [2, 4] was “minimal cleaved PARP” and the “inhibition” value ([2]; 24 hours, 10 μM (FIG. 2)) was “clear and nearly complete inhibition of p-ERK, p-RSK, and p-S6, with partial inhibition of p-AKT”.

With `C=CC(=O)N1CCN(c2ncnc3cc(Cl)c(-c4ccncc4)cc23)CC1` [Compound I-17, 1-(4-(7-chloto-6-(pyridin-4-yl)quinazolin-4-yl)piperazin-1-yl)prop-2-en-1-one] the Binding % ([1]; compounds 1-47, measured at 24 h) was “+ (+indicates binding activity from 5% to 25%)”.

With `C=CC(=O)N1CCN(c2ncnc3cc(-c4ccccc4C(F)(F)F)sc23)CC1` [Compound I-166, 1-(4-(6-(2-(trifluoromethyl)phenyl)thieno[3,2-d]pyrimidin-4-yl)piperazin-1-yl)prop-2-en-1-one] the Binding % [1, 3] was “+ (+indicates binding activity from 5% to 25%)”.

For `C=CC(=O)N1CCN(c2ncnc3c(F)c(-c4c(C)ccc5[nH]ncc45)c(Cl)cc23)CC1` [Compound 334, 1-(4-(6-chloro-8-fluoro-7-(5-methyl-1H-indazol-4-yl)quinazolin-4-yl)piperazin-1-yl)prop-2-en-1-one], the Binding % [1, 6] was “++++ (++++indicates binding activity greater than 75%)”.

`C=CC(=O)N1CCN(c2ncnc3cc(-c4c(O)cccc4F)c(C(F)(F)F)cc23)CC1` [Compound I-208, 1-(4-(7-(2-fluoro-6-hydroxyphenyl)-6-(trifluoromethyl)quinazolin-4-yl)piperazin-1-yl)prop-2-en-1-one] was tested, and the Binding % [1, 3] was “++++ (++++indicates binding activity greater than 75%)”.

With `C=CC(=O)N1CC(N2CCN(C(=O)CNc3cc(C4CC4)c(Cl)cc3C#N)CC2)C1` [II-71, 2-((2-(4-(1-Acryloylazetidin-3-yl)piperazin-1-yl)-2-oxoethyl)amino)-5-chloro-4-cyclopropylbenzonitrile] the Binding % ([1]; determined at 2 hrs) was “+ (+indicates binding activity from 5% to 20%)”.

For `C=CC(=O)N1CCN(c2ncnc3cc(-c4ccccc4C(F)(F)F)ccc23)CC1` [Compound I-157, 1-(4-(7-(2-(trifluoromethyl)phenyl)quinazolin-4-yl)piperazin-1-yl)prop-2-en-1-one], the Binding % [1, 3] was “+ (+indicates binding activity from 5% to 25%)”.

For `C=CC(=O)N1CCN(c2ncnc3cc(-c4cccc(CC)c4)c(Cl)cc23)CC1` [Compound I-79, 1-(4-(6-chloro-7-(3-ethylphenyl)quinazolin-4-yl)piperazin-1-yl)prop-2-en-1-one], the Binding % [1, 3] was “+ (+indicates binding activity from 5% to 25%)”.

`C=CC(=O)N1CCN(c2ncnc3cc(-c4cccc5c4CC(=O)N5)c(Cl)cc23)CC1` [Compound I-160, 4-(4-(4-acryloylpiperazin-1-yl)-6-chloroquinazolin-7-yl)indolin-2-one] was tested, and the Binding % [1, 3] was “+ (+indicates binding activity from 5% to 25%)”.

With `C=CC(=O)N1CCN(c2c(C#N)cnc3c(F)c(-c4c(C)ccc5[nH]ncc45)c(Cl)cc23)CC1` [Compound I-293, 4-(4-acryloylpiperazin-1-yl)-6-chloro-8-fluoro-7-(5-methyl-1H-indazol-4-yl)quinoline-3-carbonitrile] the Binding % [1, 6] was “++++ (++++indicates binding activity greater than 75%)”.

In the case of `C=CC(=O)N1CCN(c2ncnc3cc(-c4ccc(F)cc4F)c(Cl)cc23)CC1C#N` (stereo not shown) [Compound I-145, 1-acryloyl-4-(6-chloro-7-(2,4-difluorophenyl)quinazolin-4-yl)piperazine-2-carbonitrile], the Binding % [1, 3] is reported as “++++ (++++indicates binding activity greater than 75%)”.

For `C=CC(=O)N1CCN(c2ncnc3cc(-c4cc(NC(C)=O)ccc4F)c(Cl)cc23)CC1` [Compound I-174, N-(3-(4-(4-acryloylpiperazin-1-yl)-6-chloroquinazolin-7-yl)-4-fluorophenyl)acetamide], the Binding % [1, 3] was “++ (++indicates binding activity greater than 25% and up to 50%)”.

With `C#Cc1ccccc1-c1cc2ncnc(N3CCN(C(=O)C=C)CC3)c2cc1Cl` [Compound I-154, 1-(4-(6-chloro-7-(2-ethynylphenyl)quinazolin-4-yl)piperazin-1-yl)prop-2-en-1-one] the Binding % [1, 3] was “++ (++indicates binding activity greater than 25% and up to 50%)”.

In the case of `C=CC(=O)N1CCN(c2nc(NC)nc3cc(-c4c(C)ccc5[nH]ncc45)c(Cl)cc23)CC1` [Compound 312, 1-(4-(6-chloro-7-(5-methyl-1H-indazol-4-yl)-2-(methylamino)quinazolin-4-yl)piperazin-1-yl)prop-2-en-1-one], the Binding % [1, 6] is reported as “++++ (++++indicates binding activity greater than 75%)”.

`C=CC(=O)N1CCN(c2nc(-c3cn[nH]c3)nc3c(F)c(-c4c(C)ccc5[nH]ncc45)c(Cl)cc23)CC1` [Compound 304, 1-(4-(6-chloro-8-fluoro-7-(5-methyl-1H-indazol-4-yl)-2-(1H-pyrazol-4-yl)quinazolin-4-yl)piperazin-1-yl)prop-2-en-1-one] was tested, and the Binding % [1, 6] was “++ (++indicates binding activity greater than 25% and up to 50%)”.

With `C=CC(=O)N1CCN(c2ncnc3cc(-c4ccccc4C(F)(F)F)c(Cl)cc23)CC1C(N)=O` (stereo not shown) [Compound I-121, 1-acryloyl-4-(6-chloro-7-(2-(trifluoromethyl)phenyl)quinazolin-4-yl)piperazine-2-carboxamide] the Binding % [1, 3] was “++++ (++++indicates binding activity greater than 75%)”.

`C=CC(=O)N1CCN(c2cnnc3cc(-c4ccc(F)cc4F)c(Cl)cc23)CC1` [Compound I-221, 1-(4-(6-chloro-7-(2,4-difluorophenyl)cinnolin-4-yl)piperazin-1-yl)prop-2-en-1-one] was tested, and the Binding % [1, 3] was “++ (++indicates binding activity greater than 25% and up to 50%)”.

For `C=CC(=O)N1CCN(c2ncnc3cc(-c4cccc5ncccc45)c(Cl)cc23)CC1` [Compound I-135, 1-(4-(6-chloro-7-(quinolin-5-yl)quinazolin-4-yl)piperazin-1-yl)prop-2-en-1-one], the Binding % [1, 3] was “+ (+indicates binding activity from 5% to 25%)”.

For `Cc1ccc2[nH]ncc2c1-c1c(Cl)cc2c(N3CCN(C(=O)/C=C/CO)CC3)ncnc2c1F` [Compound 315, (E)-1-(4-(6-chloro-8-fluoro-7-(5-methyl-1H-indazol-4-yl)quinazolin-4-yl)piperazin-1-yl)-4-hydroxybut-2-en-1-one], the Binding % [1, 6] was “+ (+indicates binding activity from 5% to 25%)”.

For `C=CC(=O)N1CCN(c2ncnc3c(F)c(-c4c(O)cccc4F)c(C(F)(F)F)cc23)CC1` [Compound I-273, 1-(4-(8-fluoro-7-(2-dluoro-6-hydroxyphenyl)-6-(trifluoromethyl)quinaozlin-4-yl)piperazin-1-yl)prop-2-en-1-one], the Binding % [1, 6] was “++++ (++++indicates binding activity greater than 75%)”.

With `C=CC(=O)NC1CN(C2CN(C(=O)CNc3cc(Br)c(Cl)cc3O)C2)C1` [II-36, N-(1′-(2-(5-bromo-4-chloro-2-hydroxyphenylamino)-acetyl)-1,3′-biazetidin-3-yl)acrylamide] the Binding % ([1]; determined at 24 hrs) was “++++ (++++indicates binding activity greater than 50%)”.

With `C=CC(=O)N1CC(N2CCN(C(=O)C(CC)Nc3cc(Cl)c(Cl)cc3O)CC2)C1` (stereo not shown) [II-49, 1-(4-(1-acryloylazetidin-3-yl)piperazin-1-yl)-2-(4,5-dichloro-2-hydroxyphenyl-amino)butan-1-one] the Binding % ([1]; determined at 24 hrs) was “++++ (++++indicates binding activity greater than 50%)”.
